Data reported in patent US4543349A, “Basic heptapeptide vasopressin antagonists” (priority 1984, dated 1985).
Starred links: 1 amine or outer side, 2 acyl side, 3 side chain; linkers in the order of their positions; H or OH if unused. Positions of bridges follow the written chain, without caps; N, C: chain ends. Non-standard residues stand in square brackets, D forms with d. Residues, ends and D or L forms follow the SMILES beside them. *: point of attachment. X1 = O=C(CC1(S[*:2])CCCCC1)[*:1]; Agmatine = N=C(N)NCCCCN*; NH(CH2)5NH2 = NCCCCCN*; NH(CH2)4NH2 = NCCCCN*

Experiments:
[1] = target: T1, vasopressin receptors (V2 -receptors) (Sus scrofa, UniProt P32307); experiment: 3H-vasopressin binding assay, hog kidney medullary membranes; conditions: competitive inhibition of 3H-vasopressin binding, read-out: Swine KB
T1 construct: from tissue; host or cells: hog kidney medullary membranes
Method: Antagonistic activity toward the natural antidiuretic hormone (anti-ADH activity) is determined, in vitro, in the medullary tissue of hog or human kidneys and, in vivo, in the hydropenic rat. The in vitro assay procedures for vasopressin stimulated adenylate cyclase activation or vasopression binding activity are described by F. Stassen et al., J. Pharmacology and Experimental Therapeutics, 223, 50-54 (1982).
These values represent total and non-specific binding, respectively.

[2] = target: vasopressin stimulated adenylate cyclase; experiment: Vasopressin stimulated adenylate cyclase activity, human kidney medullary tissue; assay type: biochemical; conditions: human kidney medullary membrane
Method: (§1) In the test procedure for assay of adenylate cyclase activity, the amount of ^32 P/cAMP formed in the absence of medullary membrane is determined (blank). The blank value is subtracted from all experimental data. The compound is tested for its effect on basal adenylate cyclase activity and/or on vasopressin stimulated activity. Each determination is carried out in triplicate. The Ka value is derived from a Lineweaver-Burkeplot. Rel. Vmax =(Vmax drug/Vmax vasopressin)×100. Ki =I/[Ka'/Ka)-1] where I is the concentration of the antagonist, and Ka' and Ka are the concentrations of vasopressin required to give half maximal activity of adenylate cyclase in the presence and absence of antagonist, respectively.

[3] = test system: hydropenic rat; experiment: Hydropenic rat screen (anti-ADH activity in vivo); conditions: dose required to lower urine osmolality to 300 m-Osmoles/kg; intraperitoneal; hydropenic male rats
Method: The assay for anti-ADH activity in vivo is the hydropenic rat protocol described below:
Food and water are removed from male rats approximately 18 hours prior to testing. Animals are housed 4 per metabolism cage. At 0 hour, the test compound is administered intraperitoneally to the test group and an equivalent volume of vehicle is administered to both control groups (fasted and non-fasted). Urine volume and osmolality are measured every hour for 4 hours. Test values are recorded as ml of urine excreted (cumulative), mEq/rat electrolyte excreted, mg/rat urea excreted, and osmolality in milli-Osmoles/kg H2 O. A tolerance test is used to determine significance. Ed300 is defined as the dose of compound (μg/kg) required to lower urine osmolality to 300 m-Osmoles/kg.

[4] = target: vasopressin stimulated adenylate cyclase; experiment: Vasopressin stimulated adenylate cyclase activity, hog kidney medullary tissue; assay type: biochemical; conditions: swine kidney medullary membrane
Method: as §1

T1 sequence (P32307 whole entry): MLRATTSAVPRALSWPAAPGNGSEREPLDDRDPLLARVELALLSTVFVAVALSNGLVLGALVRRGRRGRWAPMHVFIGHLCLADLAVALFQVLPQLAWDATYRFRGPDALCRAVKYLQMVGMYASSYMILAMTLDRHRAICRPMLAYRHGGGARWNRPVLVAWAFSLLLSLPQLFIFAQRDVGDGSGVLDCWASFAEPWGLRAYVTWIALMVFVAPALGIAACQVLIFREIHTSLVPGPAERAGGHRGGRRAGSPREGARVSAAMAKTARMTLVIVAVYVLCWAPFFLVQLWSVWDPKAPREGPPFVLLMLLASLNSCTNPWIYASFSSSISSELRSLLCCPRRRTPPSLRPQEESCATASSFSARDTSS

CC(C)[C@@H]1NC(=O)[C@H](Cc2ccccc2)NC(=O)[C@@H](Cc2ccc(O)cc2)NC(=O)CC2(CCCCC2)SSC[C@@H](C(=O)N2CCC[C@H]2C(=O)NCCCCCN)NC(=O)[C@H](CC(N)=O)NC1=O [A, [1-(β-Mercapto-β,β -cyclopentamethylenepropionic acid)-2-D-tyrosine-4-valine-8-(1,5-diaminopentane)-8-desarginine-9-desglycineamide]-vasopressin] (HELM PEPTIDE1{[dY].F.V.N.C.P.[NCCCCCN[*:1]]}|CHEM1{[O=C(CC1(S[*:2])CCCCC1)[*:1]]}$PEPTIDE1,CHEM1,1:R1-1:R1|PEPTIDE1,CHEM1,5:R3-1:R2$$$V2.0)
Kb [1]: 220 nM

CCOc1ccc(C[C@H]2NC(=O)CC3(CCCCC3)SSC[C@@H](C(=O)N3CCC[C@H]3C(=O)NCCCCCN)NC(=O)[C@H](CC(N)=O)NC(=O)[C@H](C(C)C)NC(=O)[C@H](Cc3ccccc3)NC2=O)cc1 [B, [1-(β-Mercapto-β,β -cyclopentamethylenepropionic acid)-2-(O--ethyl-D-tyrosine)-4-valine-8-(1,5-diaminopentane)-8-desarginine-9-desglycinamide]-vasopressin] ([dY](Et)FVNCP-{NH(CH2)5NH2}; linker N-5 via X1)
Kb [1]: 29 nM

CCOc1ccc(C[C@H]2NC(=O)CC3(CCCCC3)SSC[C@@H](C(=O)N3CCC[C@H]3C(=O)NCCCCN)NC(=O)[C@H](CC(N)=O)NC(=O)[C@H](C(C)C)NC(=O)[C@H](Cc3ccccc3)NC2=O)cc1 [C, [1-(β-Mercapto-β,β -cyclopentamethylenepropionic acid)-2-(O--ethyl-D-tyrosine)-4-valine-8-(1,4-diaminobutane)-8-desarginine-9-desglycinamide]-vasopressin] ([dY](Et)FVNCP-{NH(CH2)4NH2}; linker N-5 via X1)
Kb [1]: 9.2 nM
Ki [2]: 7.5 nM
Rat ED300 [3]: 19 µg/kg
Ki [4]: 6.4 nM

CCOc1ccc(C[C@H]2NC(=O)CC3(CCCCC3)SSC[C@@H](C(=O)N3CCC[C@H]3C(=O)O)NC(=O)[C@H](CC(N)=O)NC(=O)[C@H](C(C)C)NC(=O)[C@H](Cc3ccccc3)NC2=O)cc1 [D, [1-(β-Mercapto-β,β -cyclopentamethylenepropionic acid)-2-(O--ethyl-D-tyrosine)-4-valine-8-desarginine-9-desglycinamide]-vasopressin] ([dY](Et)FVNCP-OH; linker N-5 via X1)
Kb [1]: 410 nM

CC(C)[C@@H]1NC(=O)[C@H](Cc2ccccc2)NC(=O)[C@@H](Cc2ccc(O)cc2)NC(=O)CC2(CCCCC2)SSC[C@@H](C(=O)N2CCC[C@H]2C(=O)O)NC(=O)[C@H](CC(N)=O)NC1=O [E, [1-(β-Mercapto-β,β -cyclopentamethylenepropionic acid)-2-D-tyrosine-4-valine-8-desarginine-9-desglycinamide]-vasopressin] (HELM PEPTIDE1{[dY].F.V.N.C.P}|CHEM1{[O=C(CC1(S[*:2])CCCCC1)[*:1]]}$PEPTIDE1,CHEM1,1:R1-1:R1|PEPTIDE1,CHEM1,5:R3-1:R2$$$V2.0)
Kb [1]: 17000 nM

CCOc1ccc(C[C@H]2NC(=O)CC3(CCCCC3)SSC[C@@H](C(=O)NCCCCCN)NC(=O)[C@H](CC(N)=O)NC(=O)[C@H](C(C)C)NC(=O)[C@H](Cc3ccccc3)NC2=O)cc1 [F, [1-(β-Mercapto-β,β -cyclopentamethylenepropionic acid)-2-(O--ethyl-D-tyrosine)-4-valine-7-desproline-8-desarginine-9-desglycinamide-7-(1,5-diaminopentane)]-vasopressin]
Kb [1]: 19 nM

CCOc1ccc(C[C@H]2NC(=O)CC3(CCCCC3)SSC[C@@H](C(=O)N3CCC[C@H]3C(=O)NCCCCN=C(N)N)NC(=O)[C@H](CC(N)=O)NC(=O)[C@H](C(C)C)NC(=O)[C@H](Cc3ccccc3)NC2=O)cc1 [G, [1-(β-Mercapto-β,β -cyclopentamethylenepropionic acid)-2-(O--ethyl-D-tyrosine)-4-valine-8-desarginine-9-desglycinamide-8-(1,4-aminoguanidinobutane)]-vasopressin] ([dY](Et)FVNCP-Agmatine; linker N-5 via X1)
Kb [1]: 14 nM
